Square brackets hold non-standard residues; d marks the D form. Peptide text beside a SMILES is read from it. * marks the point of attachment. Dolaproine = CO[C@@H]([C@@H]1CCCN1)[C@@H](C)C(=O)O; Dil = CC[C@H](C)[C@H](NC)[C@@H](CC(=O)O)OC; X1 = C[C@@H](N*)[C@@H](O)c1ccccc1; NMeV = CN[C@H](C(=O)O)C(C)C

Consider 20 compounds from patent US20220202948A1, “Agent for Eliminating Pluripotent Stem Cells” (Sumitomo Dainippon Pharma Co., Ltd., priority 2019, published 2022).

The target in data set [1] is T1, porcine tubulin (Sus scrofa, UniProt P02550+P02554).
T1 construct: purchased Cytoskeleton Inc. BK006P
T1 sequence (P02550 whole entry): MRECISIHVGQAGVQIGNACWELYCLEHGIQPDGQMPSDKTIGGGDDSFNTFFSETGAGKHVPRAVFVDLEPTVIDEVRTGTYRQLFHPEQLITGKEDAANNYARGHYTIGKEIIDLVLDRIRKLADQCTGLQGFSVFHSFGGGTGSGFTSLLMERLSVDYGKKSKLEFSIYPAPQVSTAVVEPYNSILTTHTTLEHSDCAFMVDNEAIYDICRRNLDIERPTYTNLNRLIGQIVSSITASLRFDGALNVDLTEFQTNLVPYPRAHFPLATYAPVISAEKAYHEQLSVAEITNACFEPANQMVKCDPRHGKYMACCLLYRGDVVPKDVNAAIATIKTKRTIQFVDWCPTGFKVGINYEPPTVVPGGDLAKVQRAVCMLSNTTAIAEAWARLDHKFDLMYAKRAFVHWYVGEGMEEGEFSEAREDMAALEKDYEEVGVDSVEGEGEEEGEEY
T1 sequence (P02554 whole entry): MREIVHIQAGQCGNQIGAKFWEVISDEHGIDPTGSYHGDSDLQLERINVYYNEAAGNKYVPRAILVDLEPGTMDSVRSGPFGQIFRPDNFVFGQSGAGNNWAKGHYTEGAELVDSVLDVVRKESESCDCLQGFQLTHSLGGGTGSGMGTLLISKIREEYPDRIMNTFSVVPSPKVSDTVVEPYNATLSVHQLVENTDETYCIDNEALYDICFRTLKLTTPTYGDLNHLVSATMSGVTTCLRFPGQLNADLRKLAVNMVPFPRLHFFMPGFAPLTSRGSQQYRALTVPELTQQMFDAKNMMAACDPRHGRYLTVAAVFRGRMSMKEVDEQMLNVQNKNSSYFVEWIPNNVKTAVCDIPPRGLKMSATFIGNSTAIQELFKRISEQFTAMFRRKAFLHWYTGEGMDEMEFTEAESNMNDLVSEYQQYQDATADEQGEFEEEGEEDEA
Nature of the data set: Activity for inhibiting microtubule polymerization using porcine tubulins (1), tubulin polymerization inhibition assay kit. The data set is classed as biochemical. To be noted: compound 0.91 μM, absorbance at 340 nm at 37° C., FIG. 1. The protocol:
(§1) Using a tubulin polymerization inhibition assay kit (catalog number: BK006P) purchased from Cytoskeleton Inc., the polymerization inhibitory activity of compounds of Examples with a concentration of 0.91 μM was evaluated in accordance with the protocol appended to the kit. In summary of the protocol, to a 96 well microplate, 80 mM PIPES pH 6.9, 2 mM MgCl, 0.5 mM EGTA and 5% DMSO buffered solution of the compound to be evaluated was added in an amount of 10 μL for each well, and to these wells, 3 mg/mL porcine tubulin 80 mM PIPES pH 6.9, 2 mM MgCl, 0.5 mM EGTA, 1 mM GTP and 10.2% glycerol solution was added in an amount of 100 μL for each well. In order to examine a state in which tubulins polymerize over time, the absorbance at 340 nm was measured at 37° C., using a microplate reader. As the polymerization of tubulins progresses, the absorbance at 340 nm rises.

Data set [2] in a line: Membrane permeability test, parallel artificial membrane permeability assay (PAMPA). The settings on record: pH 7.4, 37° C.; for Papp at 4 h: read-out: permeability coefficient Pe (pH 7.4). The data set is classed as in vitro ADME. As to the method: By the parallel artificial membrane permeability assay (PAMPA), the membrane permeability of compounds of Examples was examined as follows: To the donor plate, System solution (pION inc.) and GIT Lipid-0 (pION inc.) were added in an amount of 200 μL and 4 μL for each well, respectively. To the acceptor plate, Acceptor Sink Buffer (pION inc.) was added in an amount of 200 μL. Both plates were superposed and incubated at 37° C. for 4 hours, and then, UVs in the solutions on the side of acceptor and on the side of donor were measured with a UV plate reader (190 to 500 nm). Compounds with poor UV absorption were measured by LC-MS. The permeability coefficient Pe (10^−6 cm/sec) of the drug was calculated by the following formula.
(In general: In PAMPA a lipid-coated filter parts donor from acceptor wells.)

Data set [3] has as its target T1, porcine tubulin. Kind of data set: Activity for inhibiting microtubule polymerization using porcine tubulins (2), microtubule polymerization rate. The format is biochemical. The settings on record: compound 9.1 μM, 60 minutes after assay initiation, relative to wells without compound; lower = stronger inhibition. The protocol:
as §1, with “Examples at” for “Examples with”, “of 9.1” for “of 0.91”, “kit. To” for “kit. In summary of the protocol, to”
The tubulin polymerization inhibitory activity was evaluated based on the proportion of polymerized tubulins 60 minutes after the assay initiation. Specifically, the microtubule polymerization rate (%) was calculated by dividing the absorbance of tubulins that had polymerized at wells to which the compound had been added by the absorbance of tubulins that had polymerized at wells to which the compound had not been added, and multiplying the obtained value by 100.

In the case of `CN[C@H](C(=O)N[C@H](C(=O)N(C)[C@H](/C=C(\C)C(=O)N[C@H](CCC(=O)O)C(=O)O)C(C)C)C(C)(C)C)C(C)(C)c1cn(C)c2ccccc12` [Example 1, N,β,β-tetramethyl-L-tryptophyl-N-[(3S,4E)-6-{[(1R)-1,3-dicarboxypropyl]amino}-2,5-dimethyl-6-oxohex-4-en-3-yl]-N,3-dimethyl-L-valinamide], the “activity for inhibiting microtubule polymerization” value in data set [1] is given as “comparable activities for inhibiting microtubule polymerization”. Besides, the Papp at 4 h in data set [2] is less than 0.1 ×10⁻⁶ cm/s.

`CN[C@H](C(=O)N[C@H](C(=O)N(C)[C@H](/C=C(\C)C(=O)N[C@H](CCC(=O)O)C(=O)O)C(C)C)C(C)(C)C)C(C)(C)c1ccccc1` [Example 2, N,β,β-Trimethyl-L-phenylalanyl-N-[(3S,4E)-6-{[(1R)-1,3-dicarboxypropyl]amino}-2,5-dimethyl-6-oxohex-4-en-3-yl]-N,3-dimethyl-L-valinamide]: the “Microtubule polymerization rate (%)” value in data set [3] is given as 2%. Besides, in data set [2], the Papp at 4 h is less than 0.1 ×10⁻⁶ cm/s.

For the compound `C/C(=C\[C@H](C(C)C)N(C)C(=O)[C@@H](NC(=O)[C@H]1CCCCN1C(C)C)C(C)(C)C)C(=O)N[C@H](CCC(=O)O)C(=O)O` [Example 3, N-[(2E,4S)-2,5-Dimethyl-4-(methyl {3-methyl-N-[(2R)-1-(propan-2-yl)piperidine-2-carbonyl]-L-valyl}amino)hex-2-enoyl]-D-glutamic acid], the “Microtubule polymerization rate (%)” value in data set [3] was found to be 5%. Besides, the Papp at 4 h in data set [2] was less than 0.1 ×10⁻⁶ cm/s.

On to `CN[C@H](C(=O)N[C@H](C(=O)N(C)[C@H](/C=C(\C)C(=O)N[C@H](CC(=O)O)C(=O)O)C(C)C)C(C)(C)C)C(C)(C)c1cn(C)c2ccccc12` [Example 5], for which the Papp at 4 h in data set [2] is less than 0.1 ×10⁻⁶ cm/s.

On to `CN[C@H](C(=O)N[C@H](C(=O)N(C)[C@H](/C=C(\C)C(=O)N[C@@H](CCC(=O)O)C(=O)O)C(C)C)C(C)(C)C)C(C)(C)c1cn(C)c2ccccc12` [Example 6], for which, in data set [3], the “Microtubule polymerization rate (%)” value worked out at 4%. In addition, in data set [2], the Papp at 4 h is less than 0.1 ×10⁻⁶ cm/s.

On to `CN[C@H](C(=O)N[C@H](C(=O)N(C)[C@H](/C=C(\C)C(=O)N[C@H](CCCCN)C(=O)O)C(C)C)C(C)(C)C)C(C)(C)c1cn(C)c2ccccc12` [Example 7], for which the Papp at 4 h in data set [2] worked out at 0.8 ×10⁻⁶ cm/s.

For `CN[C@H](C(=O)N[C@H](C(=O)N(C)[C@H](/C=C(\C)C(=O)N[C@@H](CCC(=O)O)C(=O)O)C(C)C)C(C)(C)C)C(C)(C)c1ccccc1` [Example 9], in data set [3], the “Microtubule polymerization rate (%)” value amounted to 5%. The Papp at 4 h in data set [2] is less than 0.1 ×10⁻⁶ cm/s.

With `CN[C@H](C(=O)N[C@H](C(=O)N(C)[C@H](/C=C(\C)C(=O)N[C@H](CCC(=O)NCCN1C(=O)CC(SC[C@H](N)C(=O)O)C1=O)C(=O)O)C(C)C)C(C)(C)C)C(C)(C)c1ccccc1` (stereo partly drawn) [Example 37, (3S,6S,9S,10E,14R)-14-(3-{[2-(3-{[(2R)-2-Amino-2-carboxyethyl]sulfanyl}-2,5-dioxopyrrolidin-1-yl)ethyl]amino}-3-oxopropyl)-6-tert-butyl-8,11-dimethyl-4,7,12-trioxo-3-(2-phenylpropan-2-yl)-9-(propan-2-yl)-2,5,8,13-tetraazapentadec-10-en-15-oic acid], the “Microtubule polymerization rate (%)” value in data set [3] was 9%. Moreover, the Papp at 4 h in data set [2] was determined as 0.2 ×10⁻⁶ cm/s.

Regarding `CN[C@H](C(=O)N[C@H](C(=O)N(C)[C@H](/C=C(\C)C(=O)NCCCC[C@@H](NC(=O)CCCN1C(=O)CC(SC[C@H](N)C(=O)O)C1=O)C(=O)O)C(C)C)C(C)(C)C)C(C)(C)c1cn(C)c2ccccc12` (stereo partly drawn) [Example 39], the “Microtubule polymerization rate (%)” value in data set [3] is 2%. The Papp at 4 h in data set [2] came out at 1.4 ×10⁻⁶ cm/s.

Turning to `CN[C@H](C(=O)N[C@H](C(=O)N(C)[C@H](/C=C(\C)C(=O)N[C@H](CC(=O)NCCN1C(=O)CC(SC[C@H](N)C(=O)O)C1=O)C(=O)O)C(C)C)C(C)(C)C)C(C)(C)c1ccccc1` (stereo partly drawn) [Example 40], the Papp at 4 h in data set [2] is 3 ×10⁻⁶ cm/s.

Take `CN[C@H](C(=O)N[C@H](C(=O)N(C)[C@H](/C=C(\C)C(=O)N[C@@H](CC(=O)NCCN1C(=O)CC(SC[C@H](N)C(=O)O)C1=O)C(=O)O)C(C)C)C(C)(C)C)C(C)(C)c1ccccc1` (stereo partly drawn) [Example 41]: the Papp at 4 h in data set [2] was less than 0.1 ×10⁻⁶ cm/s.

`CN[C@H](C(=O)N[C@H](C(=O)N(C)[C@H](/C=C(\C)C(=O)N[C@@H](CCC(=O)NCCN1C(=O)CC(SC[C@H](N)C(=O)O)C1=O)C(=O)O)C(C)C)C(C)(C)C)C(C)(C)c1ccccc1` (stereo partly drawn) [Example 42]: in data set [3], the “Microtubule polymerization rate (%)” value was 0%. In data set [2], the Papp at 4 h was 2.2 ×10⁻⁶ cm/s.

As for `CN[C@H](C(=O)N[C@H](C(=O)N(C)[C@H](/C=C(\C)C(=O)N[C@H](CCC(=O)O)C(=O)NCCN1C(=O)CC(SC[C@H](N)C(=O)O)C1=O)C(C)C)C(C)(C)C)C(C)(C)c1ccccc1` (stereo partly drawn) [Example 46], in data set [3], the “Microtubule polymerization rate (%)” value is listed as 0%. Moreover, in data set [2], the Papp at 4 h amounted to 3.5 ×10⁻⁶ cm/s.

`CN[C@H](C(=O)N[C@H](C(=O)N(C)[C@H](/C=C(\C)C(=O)N[C@H](CCC(=O)NCCCCN1C(=O)CC(SC[C@H](N)C(=O)O)C1=O)C(=O)O)C(C)C)C(C)(C)C)C(C)(C)c1ccccc1` (stereo partly drawn) [Example 48]: in data set [3], the “Microtubule polymerization rate (%)” value is reported as 0%. The Papp at 4 h in data set [2] turned out to be 5.8 ×10⁻⁶ cm/s.

Turning to `CN[C@H](C(=O)N[C@H](C(=O)N(C)[C@H](/C=C(\C)C(=O)N[C@@H](CCC(=O)NCCN1C(=O)CC(SC[C@H](N)C(=O)O)C1=O)C(=O)O)C(C)C)C(C)(C)C)C(C)(C)c1cn(C)c2ccccc12` (stereo partly drawn) [Example 49], the “Microtubule polymerization rate (%)” value in data set [3] was 0%. In data set [2], the Papp at 4 h is less than 0.1 ×10⁻⁶ cm/s.

As for `CN[C@H](C(=O)N[C@H](C(=O)N(C)[C@H](/C=C(\C)C(=O)N[C@H](CCC(=O)NCCCN1C(=O)CC(SC[C@H](N)C(=O)O)C1=O)C(=O)O)C(C)C)C(C)(C)C)C(C)(C)c1cn(C)c2ccccc12` (stereo partly drawn) [Example 54], the “Microtubule polymerization rate (%)” value in data set [3] turned out to be 0%. The Papp at 4 h in data set [2] is less than 0.1 ×10⁻⁶ cm/s.

Regarding `CN[C@H](C(=O)N[C@H](C(=O)N(C)[C@H](/C=C(\C)C(=O)N[C@@H](CCCCNC(=O)CCCN1C(=O)CC(SC[C@H](N)C(=O)O)C1=O)C(=O)O)C(C)C)C(C)(C)C)C(C)(C)c1cn(C)c2ccccc12` (stereo partly drawn) [Example 57], the Papp at 4 h in data set [2] was less than 0.1 ×10⁻⁶ cm/s.

Regarding `CN[C@H](C(=O)N[C@H](C(=O)N(C)[C@H](/C=C(\C)C(=O)NCCCC[C@@H](NC(=O)CCCN1C(=O)CC(SC[C@H](N)C(=O)O)C1=O)C(=O)O)C(C)C)C(C)(C)C)C(C)(C)c1ccccc1` (stereo partly drawn) [Example 58], the “Microtubule polymerization rate (%)” value in data set [3] is 0%. Also, the Papp at 4 h in data set [2] came to 3 ×10⁻⁶ cm/s.

As for `CN[C@H](C(=O)N[C@H](C(=O)N(C)[C@H](/C=C(\C)C(=O)O)C(C)C)C(C)(C)C)C(C)(C)c1cn(C)c2ccccc12` [Hemiasterlin, reference compound], in data set [3], the “Microtubule polymerization rate (%)” value worked out at 0%. Further, the “activity for inhibiting microtubule polymerization” value in data set [1] is “comparable activities for inhibiting microtubule polymerization”. In data set [2], the Papp at 4 h is 25.6 ×10⁻⁶ cm/s.

Regarding `CC[C@H](C)[C@@H]([C@@H](CC(=O)N1CCC[C@H]1[C@H](OC)[C@@H](C)C(=O)N[C@H](C)[C@@H](O)c1ccccc1)OC)N(C)C(=O)[C@@H](NC(=O)[C@@H](NC)C(C)C)C(C)C` [MMAE, monomethyl auristatin, reference compound] (H-[NMeV]V[Dil][Dolaproine]-X1), the “activity for inhibiting microtubule polymerization” value in data set [1] is given as “comparable activities for inhibiting microtubule polymerization”. Further, the “permeability coefficient Pe (pH 7.4)” value in data set [2] (4 hours) was 15.3 10^−6 cm/sec.
